Reference: patent US9801833B2, “Compositions and methods using tiglic aldehyde” (NESTEC S.A., priority 2013, dated 2017)
Like-named read-outs stand apart in the source and are kept apart here.

What was measured:
[1] = molecular target: T1, TRPV1 (Homo sapiens, UniProt Q8NER1); details: cited from earlier work
T1 construct: expressed in transfected cells

[2] = molecular target: T2, TRPA1 (Homo sapiens, UniProt O75762); details: read-out: EC50 of TRPA1 activation; cited from earlier work
T2 construct: expressed in transfected cells

[3] = molecular target: T3, TRPM8 (Homo sapiens, UniProt Q7Z2W7); details: cited from earlier work
T3 construct: expressed in transfected cells

[4] = system: mice; experiment: gastric emptying after a single ingestion in mice (FIG. 6); type: in vivo; details: vs sham gavage
[5] = system: mice; experiment: insulin sensitivity in mice with chronic ingestion (FIG. 4); type: in vivo; details: mice chronically fed high fat diet containing 0.2 wt %, vs same diet without
[6] = system: mice; experiment: short term food intake after a single ingestion in mice (FIG. 5); type: in vivo; details: vs sham gavage
[7] = system: mice; experiment: body weight gain in mice with chronic ingestion (FIG. 3); type: in vivo; details: mice chronically fed high fat diet containing 0.2 wt %, vs same diet without
[8] = molecular target: T3, TRPM8; experiment: desensitization of TRPM8 by pretreatment fifteen minutes before icilin (FIGS. 8A, 8B); type: cell-based; details: applied to cells fifteen minutes before icilin
Protocol: (§1) Specifically, tiglic aldehyde was applied to cells fifteen minutes before cinnamaldehyde, icilin and capsaicin, which are specific agonists for TRPA1, TRPM8 and TRPV1 cation channels, respectively. After specific agonist application, the cation channel […] was measured. […] The left bars in each graph represent the controls lacking tiglic aldehyde pretreatment, the right bars in each graph represent the samples including tiglic aldehyde pretreatment.

[9] = molecular target: T3, TRPM8; experiment: in vitro activation of hTRPM8 in cells (FIG. 7); type: cell-based; details: FIG. 7, squares
[10] = Excerpt: Without wishing to be bound by theory, the present inventors believe that activation of TRPA1 is effective to 1) help to provoke the swallowing reflex of dysphagic patients, 2) decrease appetite by delaying gastric emptying, 3) reduce body weight gain, and 4) reduce glycemia by improving insulin sensitivity or glucose tolerance, 5) improve mood, memory or cognition. Tiglic aldehyde is described as having fresh, fruity, green, pulpy and almond nutty nuances (Fenaroli's Handbook of Flavor Ingredients, sixth edition), making it more pleasant compared to other TRPA1 agonists.
[11] = molecular target: T1, TRPV1; experiment: desensitization of TRPV1 by pretreatment fifteen minutes before capsaicin (FIGS. 8A, 8B); type: cell-based; details: applied to cells fifteen minutes before capsaicin
Protocol: as §1

[12] = system: "empty" cells; experiment: in vitro activation of "empty" cells (FIG. 7); type: cell-based
[13] = molecular target: T1, TRPV1; experiment: in vitro activation of TRPV1 in cells (FIG. 7); type: cell-based; details: FIG. 7, triangles
[14] = molecular target: T2, TRPA1; experiment: desensitization of TRPA1 by pretreatment fifteen minutes before cinnamaldehyde (FIGS. 8A, 8B); type: cell-based; details: applied to cells fifteen minutes before cinnamaldehyde
Protocol: as §1

[15] = molecular target: T2, TRPA1; experiment: in vitro activation of TRPA1 in cells (FIG. 7); type: cell-based

T2 sequence (O75762 whole entry, species assumed): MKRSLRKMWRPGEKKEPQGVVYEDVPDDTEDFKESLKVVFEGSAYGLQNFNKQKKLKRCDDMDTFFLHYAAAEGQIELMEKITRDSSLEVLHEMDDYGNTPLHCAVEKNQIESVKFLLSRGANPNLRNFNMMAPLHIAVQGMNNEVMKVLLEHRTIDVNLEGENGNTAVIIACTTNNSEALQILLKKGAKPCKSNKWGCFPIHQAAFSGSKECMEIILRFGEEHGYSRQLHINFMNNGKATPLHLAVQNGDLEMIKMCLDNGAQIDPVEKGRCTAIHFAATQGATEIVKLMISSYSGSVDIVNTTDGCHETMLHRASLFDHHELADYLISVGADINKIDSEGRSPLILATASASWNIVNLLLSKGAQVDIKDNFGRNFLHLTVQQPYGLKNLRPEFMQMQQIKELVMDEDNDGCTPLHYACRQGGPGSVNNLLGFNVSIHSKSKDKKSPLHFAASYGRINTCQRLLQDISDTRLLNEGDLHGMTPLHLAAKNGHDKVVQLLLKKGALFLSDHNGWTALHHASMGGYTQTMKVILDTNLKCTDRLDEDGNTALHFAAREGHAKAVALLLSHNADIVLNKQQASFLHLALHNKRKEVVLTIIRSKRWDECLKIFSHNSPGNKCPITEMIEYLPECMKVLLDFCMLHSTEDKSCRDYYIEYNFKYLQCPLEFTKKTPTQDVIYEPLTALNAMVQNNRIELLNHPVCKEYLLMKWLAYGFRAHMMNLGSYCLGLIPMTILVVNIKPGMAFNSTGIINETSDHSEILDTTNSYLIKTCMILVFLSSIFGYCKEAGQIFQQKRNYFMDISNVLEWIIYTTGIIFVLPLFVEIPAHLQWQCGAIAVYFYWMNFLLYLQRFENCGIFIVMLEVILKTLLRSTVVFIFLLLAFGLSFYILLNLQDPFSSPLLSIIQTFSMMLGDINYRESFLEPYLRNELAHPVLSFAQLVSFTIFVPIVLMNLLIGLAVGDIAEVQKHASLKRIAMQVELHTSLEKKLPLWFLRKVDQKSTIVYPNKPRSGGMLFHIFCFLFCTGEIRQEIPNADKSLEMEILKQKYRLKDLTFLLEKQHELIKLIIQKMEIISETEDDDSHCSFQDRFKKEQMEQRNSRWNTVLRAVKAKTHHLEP
T3 sequence (Q7Z2W7 whole entry): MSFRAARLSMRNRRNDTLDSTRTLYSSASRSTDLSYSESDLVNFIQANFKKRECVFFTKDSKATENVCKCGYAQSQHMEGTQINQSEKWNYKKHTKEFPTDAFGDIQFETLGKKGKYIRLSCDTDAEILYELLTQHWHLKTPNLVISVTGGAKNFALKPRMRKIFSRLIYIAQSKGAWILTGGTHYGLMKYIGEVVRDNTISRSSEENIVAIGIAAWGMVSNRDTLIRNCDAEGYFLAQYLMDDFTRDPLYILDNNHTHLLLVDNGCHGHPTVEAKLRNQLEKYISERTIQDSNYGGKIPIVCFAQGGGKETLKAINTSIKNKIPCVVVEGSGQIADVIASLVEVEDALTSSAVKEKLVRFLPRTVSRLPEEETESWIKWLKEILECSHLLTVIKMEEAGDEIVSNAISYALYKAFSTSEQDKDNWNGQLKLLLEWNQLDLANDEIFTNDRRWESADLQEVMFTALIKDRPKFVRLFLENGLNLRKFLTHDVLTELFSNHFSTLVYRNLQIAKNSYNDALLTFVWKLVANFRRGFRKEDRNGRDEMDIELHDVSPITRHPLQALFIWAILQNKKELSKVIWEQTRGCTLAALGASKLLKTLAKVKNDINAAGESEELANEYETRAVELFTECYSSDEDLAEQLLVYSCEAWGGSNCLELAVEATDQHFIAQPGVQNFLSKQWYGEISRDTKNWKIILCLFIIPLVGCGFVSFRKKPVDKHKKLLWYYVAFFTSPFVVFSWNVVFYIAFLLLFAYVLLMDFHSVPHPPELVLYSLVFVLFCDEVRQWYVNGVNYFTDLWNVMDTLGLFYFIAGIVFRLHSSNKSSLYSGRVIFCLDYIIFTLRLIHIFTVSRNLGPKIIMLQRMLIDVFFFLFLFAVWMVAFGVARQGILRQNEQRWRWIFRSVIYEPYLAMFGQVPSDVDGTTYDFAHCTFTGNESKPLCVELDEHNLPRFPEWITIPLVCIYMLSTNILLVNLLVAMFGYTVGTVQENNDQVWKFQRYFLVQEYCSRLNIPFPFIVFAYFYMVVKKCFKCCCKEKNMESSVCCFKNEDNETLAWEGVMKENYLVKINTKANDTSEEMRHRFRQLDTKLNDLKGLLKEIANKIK
T1 sequence (Q8NER1 whole entry, species assumed): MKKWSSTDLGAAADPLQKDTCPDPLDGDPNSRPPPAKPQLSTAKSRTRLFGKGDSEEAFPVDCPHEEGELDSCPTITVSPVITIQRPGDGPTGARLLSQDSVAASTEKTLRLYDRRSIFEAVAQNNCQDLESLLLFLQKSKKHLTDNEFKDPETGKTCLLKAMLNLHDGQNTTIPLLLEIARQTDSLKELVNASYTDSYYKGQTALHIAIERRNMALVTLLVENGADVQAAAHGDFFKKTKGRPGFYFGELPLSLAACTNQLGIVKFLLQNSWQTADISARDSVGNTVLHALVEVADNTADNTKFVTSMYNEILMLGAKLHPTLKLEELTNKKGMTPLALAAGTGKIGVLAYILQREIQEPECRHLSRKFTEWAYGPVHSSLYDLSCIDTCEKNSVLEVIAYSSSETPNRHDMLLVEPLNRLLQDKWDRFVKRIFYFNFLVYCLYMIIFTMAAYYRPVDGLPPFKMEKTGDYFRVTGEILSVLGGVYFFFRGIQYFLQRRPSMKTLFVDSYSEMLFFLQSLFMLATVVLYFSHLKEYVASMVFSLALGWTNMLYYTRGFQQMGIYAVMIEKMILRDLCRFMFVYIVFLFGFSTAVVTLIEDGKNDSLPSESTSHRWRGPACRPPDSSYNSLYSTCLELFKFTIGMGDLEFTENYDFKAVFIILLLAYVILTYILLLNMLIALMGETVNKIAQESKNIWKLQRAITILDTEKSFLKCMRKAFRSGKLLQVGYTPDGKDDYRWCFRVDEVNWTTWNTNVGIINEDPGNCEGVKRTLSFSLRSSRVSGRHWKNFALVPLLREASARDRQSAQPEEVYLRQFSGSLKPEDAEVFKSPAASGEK

In the case of `O=CC=Cc1ccccc1` [cinnamaldehyde], the “activation of TRPV1” value [1] is given as “not”, the EC50 [2] is given as about 60 µM and the “activation of TRPM8” value [3] is given as “not”. For the same compound, the gastric emptying [4] was “delayed gastric emptying”, the insulin sensitivity [5] was “improved insulin sensitivity” and the “short term food intake” value [6] was “reduction in short term food intake”. The body weight gain [7] was “gained less weight”.

For `C/C=C(\C)C=O` [tiglic aldehyde], the “desensitization of TRPM8” value [8] was “does not desensitize”, the “activation of hTRPM8” value [9] was “no activation was observed” and the irritancy [10] was “not an irritant”. The “desensitization of TRPV1” value [11] was “does not desensitize”, the “activation of "empty" cells” value [12] was “no activation was observed” and the “activation of TRPV1” value [13] was “no activation was observed”. For the same compound, the “desensitization of TRPA1” value [14] was “does not desensitize”, the “activation of TRPA1” value ([15]; FIG. 7, diamonds) was “activated TRPA1 (diamonds) in a dose-dependent fashion” and the “efficacy of TRPA1 activation relative to cinnamaldehyde” value ([15]; relative to known TRPA1 agonist cinnamaldehyde) was 120%.
